Drawing on patent US4214091A, “Antibiotic No. 2-200 and process for producing thereof” (Chugai Seiyaku Kabushiki Kaisha, priority 1977, dated 1980), this text covers MIC for one molecule.

Common to all, as to experiment: MIC, GAM agar, anaerobic
Holding throughout (assay type): cell-based

One experiment concerns Bacteroides fragilis V-7. To be noted: V7, GAM agar, anaerobic, 37° C., 40 hours, inoculum 10^6/ML, read-out: Minimum inhibitory concentration (MIC). As to the method:
(§1) Minimum inhibitory concentration (MIC) for gram
(§2) Note: incubated at 37° C. for 40 hours on GAM agar medium (product
(§3) of Nippon Seiyaku) using anaerobic incubator. Inoculated with 10^6

The next experiment relates to Bacteroides fragilis V-6. To be noted: V6, GAM agar, anaerobic, 37° C., 40 hours, inoculum 10^6/ML, read-out: Minimum inhibitory concentration (MIC). As to the method:
as §1, §2, §3

Experiment [1] deals with Fusobacterium glutinosum 1006. To be noted: 37° C., 40 hours, inoculum 10^6/ML, read-out: Minimum inhibitory concentration (MIC). As to the method: as §1, §2, §3
The next experiment concerns Bacteroides fragilis V-8. The settings on record: V8, GAM agar, anaerobic, 37° C., 40 hours, inoculum 10^6/ML, read-out: Minimum inhibitory concentration (MIC). As for the experimental part: as §1, §2, §3

In brackets after ≈: the same amount, converted by molar mass.

With `O=C(Cn1cnnn1)N[C@@H]1C(=O)N2C(C(=O)O)=C(CSc3nncs3)CS[C@H]12` [Ceftezole, reference compound], the MIC in the experiment with Bacteroides fragilis V-7 was 25 µg/mL (≈ 56.8 µM); with Bacteroides fragilis V-6, 100 µg/mL (≈ 227 µM); in experiment [1] it was 6.25 µg/mL (≈ 14.2 µM); in the experiment with Bacteroides fragilis V-8, above 100 µg/mL.
